Data as given in patent US9681664B2, “Macrocyclic picolinamides as fungicides” (Dow Agrosciences LLC, priority 2012, dated 2017).
Like-named read-outs stand apart in the source and are kept apart here.

What was measured:
[1] = test system: Mycosphaerella graminicola; Anamorph: Septoria tritici; test: Leaf blotch of wheat (SEPTTR) disease control on wheat seedlings; assay type: in vivo
Description: Technical grades of materials were dissolved in acetone, which were then mixed with nine volumes of water containing 110 ppm Triton X-100. The fungicide solutions were applied onto wheat seedlings using an automated booth sprayer to run-off. All sprayed plants were allowed to air dry prior to further handling. All fungicides were evaluated using the aforementioned method for their activity vs. all target diseases. Wheat leaf blotch and brown rust activity were also evaluated using track spray applications, in which case the fungicides were formulated as EC formulations, containing 0.1% Trycol 5941 in the spray solutions. Wheat plants (variety Yuma) were grown from seed in a greenhouse in 50% mineral soil/50% soil-less Metro mix until the first leaf was fully emerged, with 7-10 seedlings per pot. These plants were inoculated with an aqueous spore suspension of Septoria tritici either prior to or after fungicide treatments. After inoculation the plants were kept in 100% relative humidity (one day in a dark dew chamber followed by two to three days in a lighted dew chamber at 20° C.) to permit spores to germinate and infect the leaf. The plants were then transferred to a greenhouse set at 20° C. for disease to develop. When disease symptoms were fully expressed on the 1st leaves of untreated plants, infection levels were assessed on a scale of 0 to 100 percent disease severity. Percent disease control was calculated using the ratio of disease severity on treated plants relative to untreated plants.

[2] = test system: Puccinia triticina; Synonym: Puccinia recondite f. sp. tritici; test: Wheat brown rust (PUCCRT) disease control on wheat seedlings; assay type: in vivo; conditions: for pest or weed control at 100 ppm / pest or weed control at 121.5 g/ha: Puccinia triticina; for pest or weed control at 121.5 g/ha: low volume application, 121.5 g/H
Description: Technical grades of materials were dissolved in acetone, which were then mixed with nine volumes of water containing 110 ppm Triton X-100. The fungicide solutions were applied onto wheat seedlings using an automated booth sprayer to run-off. All sprayed plants were allowed to air dry prior to further handling. All fungicides were evaluated using the aforementioned method for their activity vs. all target diseases. Wheat leaf blotch and brown rust activity were also evaluated using track spray applications, in which case the fungicides were formulated as EC formulations, containing 0.1% Trycol 5941 in the spray solutions. Wheat plants (variety Yuma) were grown from seed in a greenhouse in 50% mineral soil/50% soil-less Metro mix until the first leaf was fully emerged, with 7-10 seedlings per pot. These plants were inoculated with an aqueous spore suspension of Puccinia triticina either prior to or after fungicide treatments. After inoculation the plants were kept in a dark dew room at 22° C. with 100% relative humidity overnight to permit spores to germinate and infect the leaf. The plants were then transferred to a greenhouse set at 24° C. for disease to develop. Fungicide formulation, application and disease assessment followed the procedures as described in the Example A.

[3] = Zymoseptoria tritici, 24 h, High volume application, 100 ppm, 1 Day Protectant, read-out: SEPTTR 1DP disease control
[4] = Zymoseptoria tritici, 72 h, High volume application, 100 ppm, 3 Day Curative, read-out: SEPTTR 3DC disease control
[5] = 24 h, High volume application, 100 ppm, 1 Day Protectant, read-out: PUCCRT 1DP disease control
[6] = 72 h, High volume application, 100 ppm, 3 Day Curative, read-out: PUCCRT 3DC disease control
[7] = High volume application, 100 ppm, 1 Day Protectant
[8] = High volume application, 100 ppm, 3 Day Curative

Molecule | pest or weed control at 100 ppm [1, 3] [%] | pest or weed control at 100 ppm [1, 4] [%] | pest or weed control at 100 ppm [2, 5] [%] | pest or weed control at 100 ppm [2, 6] [%] | further results
COc1ccnc(C(=O)N[C@H]2CCC[C@H](OCC(C)C)[C@@H](OC(=O)C3CCCC3)[C@H](C)OC2=O)c1OCOC(C)=O [F150] | 80 to 100 | 80 to 100 | 80 to 100 | 80 to 100 | –
COc1ccnc(C(=O)N[C@H]2CCC[C@H](OC(=O)C3CCCC3)[C@@H](OCC(C)C)[C@H](C)OC2=O)c1O [F221] | 80 to 100 | 0 to 80 | 80 to 100 | 0 to 80 | –
COc1ccnc(C(=O)N[C@H]2CCC[C@H](OC(=O)C3CCCC3)[C@@H](OC3CCCC3)[C@H](C)OC2=O)c1OCOC(C)=O [F158] | 80 to 100 | 80 to 100 | 80 to 100 | 80 to 100 | –
COc1ccnc(C(=O)N[C@H]2CCC[C@H](OCCCC(F)(F)F)[C@@H](OCCCC(F)(F)F)[C@H](C)OC2=O)c1OC(C)=O [F90] | 80 to 100 | 80 to 100 | 80 to 100 | 80 to 100 | –
CCCCCO[C@H]1[C@H](C)OC(=O)[C@@H](NC(=O)c2nccc(CC)c2O)CCC[C@@H]1OCC(C)C [F70] | 0 to 80 | 0 to 80 | 0 to 80 | 0 to 80 | –
COc1ccnc(C(=O)N[C@H]2CCC[C@H](Oc3ccc(F)cc3)[C@@H](OC3CCCC3)[C@H](C)OC2=O)c1O [F160] | 80 to 100 | 80 to 100 | 80 to 100 | 80 to 100 | –
CCCO[C@H]1CCC[C@H](NC(=O)c2nccc(OC)c2O)C(=O)O[C@@H](C)[C@@H]1Oc1ccccc1 [F127] | 80 to 100 | 80 to 100 | 80 to 100 | 80 to 100 | –
COc1ccnc(C(=O)N[C@H]2CCC[C@H](OCC(C)C)[C@@H](OCCCc3ccccc3)[C@H](C)OC2=O)c1OC(C)=O [F214] | 80 to 100 | 80 to 100 | 80 to 100 | 80 to 100 | –
COc1ccnc(C(=O)N[C@H]2CCC[C@H](OCCCc3ccccc3)[C@@H](OCC(C)C)[C@H](C)OC2=O)c1O [F219] | 80 to 100 | 0 to 80 | 80 to 100 | 80 to 100 | –
COc1ccnc(C(=O)N[C@H]2CCC[C@H](OC3CCCC3)[C@@H](OC(=O)C3CC3)[C@H](C)OC2=O)c1O [F142] | 0 to 80 | 80 to 100 | 80 to 100 | 80 to 100 | –
COc1ccnc(C(=O)N[C@H]2CCC[C@H](OCCCc3ccccc3)[C@@H](OC3CCCC3)[C@H](C)OC2=O)c1O [F224] | 0 to 80 | 0 to 80 | 80 to 100 | 0 to 80 | –
COc1ccc(O[C@H]2[C@H](C)OC(=O)[C@@H](NC(=O)c3nccc(OC)c3O)CCC[C@@H]2Oc2ccc(OC)cc2)cc1 [F64] | 0 to 80 | 0 to 80 | 0 to 80 | < 0 | –
CCCO[C@H]1CCC[C@H](NC(=O)c2nccc(OC)c2O)C(=O)O[C@@H](C)[C@@H]1Oc1ccc(Br)cc1 [F273] | – | – | – | – | pest or weed control at 100 ppm ([1]; Zymoseptoria tritici, 24 h, Wheat Leaf Blotch, 1 Day Protectant, high volume application, 100 ppm, read-out: Disease Control SEPTTR 1 DP 100 ppm): 80 to 100%; pest or weed control at 100 ppm ([1]; Zymoseptoria tritici, 72 h, Wheat Leaf Blotch, 3 Day Curative, high volume application, 100 ppm, read-out: Disease Control SEPTTR 3 DC 100 ppm): 0 to 80%; pest or weed control at 100 ppm ([2]; 24 h, Wheat Brown Rust, 1 Day Protectant, high volume application, 100 ppm, read-out: Disease Control PUCCRT 1 DP 100 ppm): 80 to 100%; pest or weed control at 100 ppm ([2]; 72 h, Wheat Brown Rust, 3 Day Curative, high volume application, 100 ppm, read-out: Disease Control PUCCRT 3 DC 100 ppm): 80 to 100%
COc1ccnc(C(=O)N[C@H]2CCC[C@H](OCC(C)C)[C@@H](Oc3ccc(F)cc3)[C@H](C)OC2=O)c1OCOC(=O)C(C)C [F62] | 80 to 100 | 80 to 100 | 80 to 100 | 80 to 100 | –
COc1ccnc(C(=O)N[C@H]2CCC[C@H](Oc3ccc(F)cc3)[C@@H](OC3CCCC3)[C@H](C)OC2=O)c1OCOC(=O)C(C)C [F161] | 80 to 100 | 80 to 100 | 80 to 100 | 80 to 100 | –
COc1ccnc(C(=O)N[C@H]2CCC[C@H](OCC(C)C)[C@@H](Oc3ccc(C)cc3)[C@H](C)OC2=O)c1O [F82] | < 0 | 0 to 80 | 0 to 80 | 0 to 80 | –
COc1ccnc(C(=O)N[C@H]2CCC[C@H](Oc3ccccc3)[C@@H](OCCCc3ccccc3)[C@H](C)OC2=O)c1OCOC(=O)C(C)C [F112] | 80 to 100 | 80 to 100 | 80 to 100 | 80 to 100 | –
COc1ccnc(C(=O)N[C@H]2CCC[C@H](OCC(C)C)[C@@H](OC(=O)C3CCCC3)[C@H](C)OC2=O)c1OC(C)=O [F151] | 80 to 100 | 80 to 100 | 80 to 100 | 80 to 100 | –
CCCO[C@H]1CCC[C@H](NC(=O)c2nccc(OC)c2OC(C)=O)C(=O)O[C@@H](C)[C@@H]1Oc1ccc(F)cc1 [F266] | – | – | – | – | pest or weed control at 121.5 g/ha ([1]; Zymoseptoria tritici, 24 h, Wheat Leaf Blotch, 1 Day Protectant, low volume application, 121.5 g/H, read-out: Disease Control SEPTTR 1 DP 121.5 g/H): 80 to 100%; pest or weed control at 121.5 g/ha ([2]; 24 h, Wheat Brown Rust, 1 Day Protectant, read-out: Disease Control PUCCRT 1 DP 121.5 g/H): 80 to 100%; pest or weed control at 121.5 g/ha ([2]; 72 h, Wheat Brown Rust, 3 Day Curative, read-out: Disease Control PUCCRT 3 DC 121.5 g/H): 80 to 100%
[4-methoxy-2-[[(3S,7S,8S,9S)-9-methyl-7,8-bis(2-methylallyloxy)-2-oxo-oxonan-3-yl]carbamoyl]-3-pyridyl]oxymethyl acetate [F16] | – | – | – | – | SEPTTR 1DP disease control [1, 7]: A (80-100); SEPTTR 3DC disease control [1, 8]: A (80-100); PUCCRT 1DP disease control [2, 7]: A (80-100); PUCCRT 3DC disease control [2, 8]: A (80-100)
CCCO[C@H]1[C@H](C)OC(=O)[C@@H](NC(=O)c2nccc(OC)c2OC(C)=O)CCC[C@@H]1Oc1ccccc1 [F102] | 80 to 100 | 80 to 100 | 80 to 100 | 80 to 100 | –
COc1ccnc(C(=O)N[C@H]2CCC[C@H](OC3CCCC3)[C@@H](OCC(C)C)[C@H](C)OC2=O)c1OCOC(=O)C(C)C [F124] | 80 to 100 | 80 to 100 | 80 to 100 | 80 to 100 | –
COc1ccnc(C(=O)N[C@H]2CCC[C@H](Oc3ccccc3)[C@@H](OCCCC(F)(F)F)[C@H](C)OC2=O)c1OCOC(=O)C(C)C [F108] | 80 to 100 | 80 to 100 | 80 to 100 | 80 to 100 | –
COc1ccnc(C(=O)N[C@H]2CCC[C@H](OCCCC(F)(F)F)[C@@H](OCCCC(F)(F)F)[C@H](C)OC2=O)c1OCOC(C)=O [F87] | 80 to 100 | 80 to 100 | 80 to 100 | 80 to 100 | –
COc1ccnc(C(=O)N[C@H]2CCC[C@H](OCC(C)C)[C@@H](OCCC(C)OC)[C@H](C)OC2=O)c1OCOC(C)=O (some centres unmarked) [F72] | 80 to 100 | 80 to 100 | 80 to 100 | 80 to 100 | –
COc1ccnc(C(=O)N[C@H]2CCC[C@H](OC3CCCC3)[C@@H](OCCCc3ccccc3)[C@H](C)OC2=O)c1O [F163] | 80 to 100 | 0 to 80 | 80 to 100 | 80 to 100 | –
COc1ccnc(C(=O)N[C@H]2CCC[C@H](OC(=O)C3CCCC3)[C@@H](OCC(C)C)[C@H](C)OC2=O)c1OCOC(C)=O [F223] | 80 to 100 | 80 to 100 | 80 to 100 | 80 to 100 | –
